What was measured:
Format in all cases: in vivo
[1] = system: Echinochloa crus-galli var. formosensis; experiment: Test Example 1: herbicidal effect test by soil application in paddy rice; conditions: Echinochloa crus-galli, soil, 336 h; 120 g active ingredient per 10 ares; applied immediately after sowing, flooded pots; 14 days after application; read-out: weed inhibition rate
In short: (§1)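 Weeds sown 0–1 cm deep (30 seeds each) into fertilized, puddled paddy soil in Wagner pots. Pots are flooded immediately, water held near 3 cm, and the diluted emulsifiable concentrate is dripped in at once, delivering 120 g active ingredient per 10 ares under glass-greenhouse management.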

Scirpus juncoides [2] = experiment: as above; conditions: Schoenoplectiella juncoides, soil, 336 h; 120 g active ingredient per 10 ares; applied immediately after sowing, flooded pots; 14 days after application; read-out: weed inhibition rate
In short: as §1

[3] = system: Echinochloa crus-galli var. formosensis; experiment: Test Example 2: herbicidal effect test by application during growth period of paddy rice; conditions: Echinochloa crus-galli; 120 g per 10 ares; applied seven days after sowing, flooded pots; 14 days after application; read-out: weed inhibition rate
In short: (§2)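 Herbicidal effect was scored 14 days after treatment, in duplicate per concentration. Weeds sown 0–1 cm deep in puddled, fertilized paddy soil under about 3 cm of standing water received a water-diluted emulsifiable concentrate by dropper 7 days post-sowing, at 120 g a.i. per 10 ares.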

Scirpus juncoides [4] = experiment: as above; conditions: Schoenoplectiella juncoides; 120 g per 10 ares; applied seven days after sowing, flooded pots; 14 days after application; read-out: weed inhibition rate
In short: as §2

Digitaria ciliaris [5] = experiment: Test Example 3: herbicidal effect test by soil application in upland field; conditions: Digitaria ciliaris, 120 g per 10 ares, sprayed one day after sowing, 14 days after application, read-out: weed inhibition rate
In short: (§3)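 Pre-emergence test: seeds mixed into top 1 cm of alluvial loam upland soil in pots; emulsifiable concentrate diluted in water sprayed on soil one day after sowing at 100 L/10 a, 120 g a.i./10 a. Weed inhibition rate (%) scored at 14 days, in duplicate.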

Echinochloa crus-galli [6] = experiment: as above; conditions: Echinochloa crus-galli, 120 g per 10 ares, sprayed one day after sowing, 14 days after application, read-out: weed inhibition rate
In short: as §3

Digitaria ciliaris [7] = experiment: Test Example 4: herbicidal effect test by stem and leaf treatment in upland field; conditions: Digitaria ciliaris; 120 g per 10 ares; sprayed seven days after sowing, upland soil; 14 days after application; read-out: weed inhibition rate
Echinochloa crus-galli [8] = experiment: as above; conditions: Echinochloa crus-galli; 120 g per 10 ares; sprayed seven days after sowing, upland soil; 14 days after application; read-out: weed inhibition rate
[9] = system: Echinochloa crus-galli var. formosensis; experiment: Test Example 5: herbicidal effect test by soil application in paddy rice (low dose); conditions: Echinochloa crus-galli, soil, 336 h; 7.5 g per 10 ares; applied immediately after sowing, flooded pots; 14 days after application; read-out: weed inhibition rate
In short: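 Dose of 7.5 g a.i. per 10 ares, applied by dropper as diluted emulsifiable concentrate to flooded (~3 cm) paddy pots immediately after sowing seeds at 0–1 cm. Kept in a glass greenhouse; duplicate pots rated at 14 days post-application.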

[10] = system: Echinochloa crus-galli var. formosensis; experiment: Test Example 6: herbicidal effect test by application during growth period of paddy rice (low dose); conditions: Echinochloa crus-galli; 7.5 g per 10 ares; applied seven days after sowing, flooded pots; 14 days after application; read-out: weed inhibition rate
In short: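 Low-dose water application, 7.5 g a.i. per 10 ares, given by dropper into flooded pots (about 3 cm depth) 7 days after sowing of 30 weed seeds each at 0–1 cm. Evaluation of inhibition (%) took place 14 days later, duplicate per rate.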

Digitaria ciliaris [11] = experiment: Test Example 7: herbicidal effect test by soil application in upland field (low dose); conditions: Digitaria ciliaris, 7.5 g per 10 ares, sprayed one day after sowing, 14 days after application, read-out: weed inhibition rate
Method: (§4) The present test was conducted in duplicate for each chemical concentration group, and the weed inhibition rate (%) was determined 14 days after chemical application using the following formula (Math. 1). [formula]
(§5) Pots with an area of 36 cm^2 were filled with upland soil (alluvial loam), twenty seeds each of weeds of Digitaria ciliaris, and Echinochloa crus-galli were uniformly mixed with the top 1 cm layer of soil and the surface was lightly pressed down. One day after sowing, an emulsifiable concentrate prepared according to Formulation Example 5 using the compound shown below was diluted with water, and the diluted solution was sprayed onto the soil surface at a rate of 100 liters per 10 ares. The amount of the active ingredient to be applied was equivalent to 7.5 g per 10 ares. Fourteen days after chemical application, the herbicidal effect was evaluated according to the same criteria as in Test Example 1.

Echinochloa crus-galli [12] = experiment: as above; conditions: Echinochloa crus-galli, 7.5 g per 10 ares, sprayed one day after sowing, 14 days after application, read-out: weed inhibition rate
Method: as §4, §5

Digitaria ciliaris [13] = experiment: Test Example 8: herbicidal effect test by stem and leaf treatment in upland field (low dose); conditions: Digitaria ciliaris; 7.5 g per 10 ares; sprayed seven days after sowing, upland soil; 14 days after application; read-out: weed inhibition rate
Method: as §4
as §5, with “Seven days” for “One day”

Echinochloa crus-galli [14] = experiment: as above; conditions: Echinochloa crus-galli; 7.5 g per 10 ares; sprayed seven days after sowing, upland soil; 14 days after application; read-out: weed inhibition rate
Method: as §4
as §5, with “Seven days” for “One day”

CC(C)C12CC(OCc3cccs3)C(C)(CC1Cl)O2 (stereo not drawn) [1-1323, 2-chloro-1-isopropyl-4-methyl-5-(2-thienylmethoxy)-7-oxabicyclo[2.2.1]heptane]
≥ 80%: pest or weed control at 1200 g/ha [1] | pest or weed control at 1200 g/ha (Scirpus juncoides [2]) | inhibition at 1200 g/ha [3] | inhibition at 1200 g/ha (Scirpus juncoides [4]) | inhibition at 1200 g/ha (Digitaria ciliaris [5]) | inhibition at 1200 g/ha (Echinochloa crus-galli [6]) | inhibition at 1200 g/ha (Digitaria ciliaris [7]) | inhibition at 1200 g/ha (Echinochloa crus-galli [8]) | inhibition at 75 g/ha [9] | inhibition at 75 g/ha [10] | inhibition at 75 g/ha (Digitaria ciliaris [11]) | inhibition at 75 g/ha (Echinochloa crus-galli [12]) | inhibition at 75 g/ha (Digitaria ciliaris [13]) | inhibition at 75 g/ha (Echinochloa crus-galli [14])

CC(C)C12CC(OCc3ccccc3I)C(C)(CC1I)O2 (stereo not drawn) [1-1430, 2-iodo-5-[(2-iodophenyl)methoxy]-1-isopropyl-4-methyl-7-oxabicyclo[2.2.1]heptane]
≥ 80%: pest or weed control at 1200 g/ha [1] | pest or weed control at 1200 g/ha (Scirpus juncoides [2]) | inhibition at 1200 g/ha [3] | inhibition at 1200 g/ha (Scirpus juncoides [4]) | inhibition at 1200 g/ha (Digitaria ciliaris [5]) | inhibition at 1200 g/ha (Echinochloa crus-galli [6]) | inhibition at 1200 g/ha (Echinochloa crus-galli [8]) | inhibition at 75 g/ha [9] | inhibition at 75 g/ha [10] | inhibition at 75 g/ha (Digitaria ciliaris [11]) | inhibition at 75 g/ha (Echinochloa crus-galli [12]) | inhibition at 75 g/ha (Digitaria ciliaris [13]) | inhibition at 75 g/ha (Echinochloa crus-galli [14])

CC(C)C12CC(OCc3ccccn3)C(C)(CC1Br)O2 (stereo not drawn) [1-1386, 2-[(5-bromo-1-methyl-4-isopropyl-7-oxabicyclo[2.2.1]heptan-2-yl)oxymethyl]pyridine]
≥ 80%: pest or weed control at 1200 g/ha [1] | pest or weed control at 1200 g/ha (Scirpus juncoides [2]) | inhibition at 1200 g/ha [3] | inhibition at 1200 g/ha (Scirpus juncoides [4]) | inhibition at 1200 g/ha (Digitaria ciliaris [5]) | inhibition at 1200 g/ha (Echinochloa crus-galli [6]) | inhibition at 1200 g/ha (Digitaria ciliaris [7]) | inhibition at 1200 g/ha (Echinochloa crus-galli [8]) | inhibition at 75 g/ha [9] | inhibition at 75 g/ha [10] | inhibition at 75 g/ha (Digitaria ciliaris [11]) | inhibition at 75 g/ha (Echinochloa crus-galli [12]) | inhibition at 75 g/ha (Digitaria ciliaris [13]) | inhibition at 75 g/ha (Echinochloa crus-galli [14])

CC(C)C12CC(OCc3cccs3)C(C)(CC1I)O2 (stereo not drawn) [1-1456, 2-iodo-1-isopropyl-4-methyl-5-(2-thienylmethoxy)-7-oxabicyclo[2.2.1]heptane]
≥ 80%: pest or weed control at 1200 g/ha [1] | pest or weed control at 1200 g/ha (Scirpus juncoides [2]) | inhibition at 1200 g/ha [3] | inhibition at 1200 g/ha (Scirpus juncoides [4]) | inhibition at 1200 g/ha (Digitaria ciliaris [5]) | inhibition at 1200 g/ha (Echinochloa crus-galli [6]) | inhibition at 1200 g/ha (Digitaria ciliaris [7]) | inhibition at 1200 g/ha (Echinochloa crus-galli [8]) | inhibition at 75 g/ha [9] | inhibition at 75 g/ha [10] | inhibition at 75 g/ha (Digitaria ciliaris [11]) | inhibition at 75 g/ha (Echinochloa crus-galli [12]) | inhibition at 75 g/ha (Digitaria ciliaris [13]) | inhibition at 75 g/ha (Echinochloa crus-galli [14])

CC(C)[C@]12C=C[C@](C)(O1)[C@H](OCC1CCCCC1)C2 [3-697, (1R,4S,5R)-5-(cyclohexylmethoxy)-1-isopropyl-4-methyl-7-oxabicyclo[2.2.1]hept-2-ene]
≥ 80%: pest or weed control at 1200 g/ha [1] | pest or weed control at 1200 g/ha (Scirpus juncoides [2]) | inhibition at 1200 g/ha [3] | inhibition at 1200 g/ha (Scirpus juncoides [4]) | inhibition at 1200 g/ha (Digitaria ciliaris [5]) | inhibition at 1200 g/ha (Echinochloa crus-galli [6]) | inhibition at 1200 g/ha (Digitaria ciliaris [7]) | inhibition at 1200 g/ha (Echinochloa crus-galli [8]) | inhibition at 75 g/ha [9] | inhibition at 75 g/ha [10] | inhibition at 75 g/ha (Digitaria ciliaris [11]) | inhibition at 75 g/ha (Echinochloa crus-galli [12]) | inhibition at 75 g/ha (Digitaria ciliaris [13]) | inhibition at 75 g/ha (Echinochloa crus-galli [14])
